Measured values taken from PubChem BioAssay (NCI).
Values joined by “and” are separate entries in the source; they are usually repeats but may differ in a detail not shown here. Identical values can stand only once.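 Cultured in 96-well plates, cells were exposed to test compound for 48 hours across five concentrations. Abbreviation: GI50, concentration required for 50% inhibition of growth. At the TGI there is no net growth.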

Tests used:
Experiment in all cases: DTP human tumour cell line panel, 48 h
[1] = system: A498 renal
[2] = system: TK-10 renal
[3] = system: HL-60(TB) leukemia
[4] = system: SN12C renal
[5] = system: OVCAR-3 ovarian
[6] = system: SF-539 CNS
[7] = system: SW-620 colon
[8] = system: SK-MEL-28 melanoma
[9] = system: SNB-19 CNS
[10] = system: COLO 205 colon

Row | Structure (SMILES) | GI50 [1] | TGI [1] | GI50 [2] [nM] | TGI [2] [µM] | GI50 [3] [nM] | TGI [3] [µM] | GI50 [4] [nM] | TGI [4] [µM] | GI50 [5] | TGI [5] [µM] | GI50 [6] [nM] | TGI [6] [µM] | GI50 [7] [nM] | TGI [7] [µM] | GI50 [8] [nM] | TGI [8] [µM] | GI50 [9] | TGI [9] [µM] | GI50 [10] [nM] | TGI [10] [µM]
1 | CCCCn1c2cc(OCc3cn(-c4ccc(Cl)cc4)nn3)ccc2c2ccnc(C)c21 | 5.08 µM | 14.1 µM | 7550 | 14.1 | 5090 | 12.6 | 8160 | > 33.3 | 6410 nM | 18.2 | 5110 | 10.3 | 11000 | > 33.3 | 5820 | 14 | 14.1 µM | > 33.3 | 5760 | 14.4
2 | O=c1cc(C(F)(F)F)c2cc3c(cc2o1)NCCC3 |  | > 100 µM |  | > 100 |  | > 100 |  | > 100 |  | > 100 |  | > 100 |  | > 100 |  | > 100 |  | 91.7 |  | > 100
3 | C(=N\Nc1ccccn1)/c1ccccn1 | 0.273 µM |  |  | > 100 | 272 | 2.53 | 443 | > 100 | 286 nM |  | 333 | 2.31 | 557 | > 100 | 816 | > 100 | 0.547 µM | > 100 | 356 | > 100
4 | CC(O)/C=C/C(CCC(C)CO)C(C)C (configuration not stated) |  | > 100 µM |  | > 100 |  | > 100 |  | > 100 |  | > 100 |  | > 100 |  | > 100 |  | > 100 |  | > 100 |  | > 100
5 | O=C1NC(=S)NC(=O)C1=Cc1cc2c(cc1[N+](=O)[O-])OCO2 |  | > 100 µM |  | > 100 |  | > 100 |  | > 100 |  | > 100 |  | > 100 |  | > 100 |  | > 100 |  | > 100 |  | > 100
6 | O=C(/C=C/c1cccnc1)NCCCCC1CCN(C(=O)c2ccccc2)CC1 | > 100 µM and 14.5 µM | > 100 µM and 97.8 µM | > 100000 | > 100 | > 65600 | > 100 | < 10 | > 100 | 48500 nM and 6220 nM | > 100 | < 10 | > 100 | < 10 | > 100 | > 100000 | > 100 | 0.615 µM and 4.43 µM | > 100 | 25400 | > 100
7 | CCCC[C@H]1C(=O)O[C@H](C)[C@H](NC(=O)c2cccc(NC=O)c2O)C(=O)O[C@@H](C)[C@@H]1OC(=O)CC(C)C |  | 30 µM |  | 50.6 |  | 34.2 |  | 40.7 |  | 24.6 |  | 31.8 |  | 68.3 |  | 72.9 |  | 63.1 |  | 31.6
8 | Cc1ccc(C(=O)Nc2ccc(CN3CCN(C)CC3)c(C(F)(F)F)c2)cc1C#Cc1cnc(N)cc1C#N | 0.159 µM | 0.701 µM | 190 | 0.833 | 233 | 1.08 | 91.8 | 0.733 | 211 nM | 1.01 | 277 | 0.926 | 330 | 1.15 | 106 | 0.701 | 0.539 µM | 1.3 | 90.1 | 0.714
9 | C=C1C(=O)O[C@H]2[C@H]1CC/C(COC(=O)NCc1cc3ccccc3[nH]1)=C\CC[C@@]1(C)O[C@@H]21 | 10.9 µM | 23.4 µM | 2260 | 4.19 | 865 | 3.16 | 1450 | 3.17 | 1690 nM | 3.52 | 1730 | 3.26 | 1720 | 3.84 | 1740 | 3.36 | 5.62 µM | 20.4 | 1800 | 3.59
10 | O=C(O)C(=Cc1ccnc2ccccc12)C(=O)O |  | > 100 µM |  | > 100 |  | > 100 |  | > 100 |  | > 100 |  | > 100 |  | > 100 |  | > 100 |  | > 100 |  | > 100
11 | Cc1cccc(C(C)(C)C)c1NC(=O)C(=O)C(C(=O)/C=C\c1ccccc1)C1OC(=O)c2ccccc21 (configuration not stated) |  | > 100 µM |  | > 100 |  | > 100 |  | > 100 |  | > 100 |  | > 100 |  | > 100 |  | > 100 |  | > 100 |  | > 100
12 | COC(=O)C(CCS(=O)(=O)CC(=O)C(=O)Nc1cccc(C(C)=O)c1)C(=O)OC |  | > 100 µM |  | > 100 |  | > 100 |  | > 100 |  | > 100 |  | > 100 |  | > 100 |  | > 100 |  | > 100 |  | > 94.2
13 | C=C1[C@@H](C)[C@H]2[C@H](Cc3ccccc3)NC(=O)[C@]23OC(=O)/C=C/[C@H](O)CCC[C@@H](C)C/C=C/[C@H]3[C@@H]1O |  | 16.5 µM |  | 47 |  | 90 |  | > 100 |  | 91.4 |  | 43.8 |  | > 100 |  | > 100 |  | 64.1 |  | > 100
14 | O=C(/C=C/c1ccc(OCC(=O)N2CCN(c3ccccc3)CC2)cc1)c1ccc(Cl)cc1 |  | 60.3 µM |  | > 90.6 |  | > 100 |  | > 100 |  | > 100 |  | 56.6 |  | > 100 |  | > 100 |  | 50.7 |  | > 100
15 | CCOc1ccc(N=Cc2cccc3cccnc23)cc1 |  | > 100 µM |  | > 100 |  | 62.2 |  | > 100 |  | > 100 |  | > 100 |  | > 100 |  | > 100 |  | > 100 |  | > 100
16 | O=c1cccc(C#CC#C[C@H]2O[C@@H]2CO)o1 | 2.03 µM | 4.34 µM | 495 | 1.93 | 1470 | > 100 | 149 | 0.333 | 286 nM | 0.689 | 1070 | 2.84 | 238 | 0.596 | 370 | 1.71 | 6.24 µM | 14.4 | 665 | 1.58
